Measured values as given in article PMC3961306, “Comparison of the Cancer Gene Targeting and Biochemical Selectivities of All Targeted Kinase Inhibitors Approved for Clinical Use” (PLoS ONE, 2014).

Columns and labels:
Test in all cases: Kinase profiling in a biochemical assay panel (mobility shift assays and ELISA), %-inhibition at 1 μM; selectivity entropy
[1] = biological target: panel of more than 300 wild-type and mutant kinases (313 kinase panel) (Homo sapiens, UniProt Q00526)
[2] = biological target: panel of more than 300 wild-type and mutant kinases (313 kinase panel) (Homo sapiens, UniProt P07947)
[3] = biological target: panel of more than 300 wild-type and mutant kinases (313 kinase panel) (Homo sapiens, UniProt P07333)
[4] = biological target: T1, panel of more than 300 wild-type and mutant kinases (313 kinase panel) (Homo sapiens, UniProt O60285)
T1 sequence (O60285 1-661): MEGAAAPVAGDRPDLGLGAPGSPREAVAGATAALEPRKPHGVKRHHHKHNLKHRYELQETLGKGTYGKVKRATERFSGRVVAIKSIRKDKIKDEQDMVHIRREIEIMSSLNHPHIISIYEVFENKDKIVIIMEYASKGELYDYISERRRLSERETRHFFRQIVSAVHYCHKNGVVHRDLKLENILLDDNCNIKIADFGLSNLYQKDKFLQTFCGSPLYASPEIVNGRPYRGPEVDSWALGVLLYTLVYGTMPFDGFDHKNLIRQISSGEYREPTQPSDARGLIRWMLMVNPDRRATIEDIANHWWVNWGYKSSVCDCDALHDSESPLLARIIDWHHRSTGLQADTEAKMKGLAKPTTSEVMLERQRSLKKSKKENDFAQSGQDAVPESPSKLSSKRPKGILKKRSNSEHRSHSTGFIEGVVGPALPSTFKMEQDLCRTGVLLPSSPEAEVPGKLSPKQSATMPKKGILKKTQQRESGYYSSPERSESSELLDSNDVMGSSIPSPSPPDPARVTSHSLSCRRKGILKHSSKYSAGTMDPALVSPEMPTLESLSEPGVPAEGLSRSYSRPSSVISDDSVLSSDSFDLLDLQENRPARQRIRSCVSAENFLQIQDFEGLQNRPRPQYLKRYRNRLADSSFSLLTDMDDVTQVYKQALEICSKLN

[5] = biological target: panel of more than 300 wild-type and mutant kinases (313 kinase panel) (Homo sapiens, UniProt O96017)
[6] = biological target: T2, panel of more than 300 wild-type and mutant kinases (313 kinase panel) (Homo sapiens, UniProt Q99683)
T2 sequence (Q99683 1-1374): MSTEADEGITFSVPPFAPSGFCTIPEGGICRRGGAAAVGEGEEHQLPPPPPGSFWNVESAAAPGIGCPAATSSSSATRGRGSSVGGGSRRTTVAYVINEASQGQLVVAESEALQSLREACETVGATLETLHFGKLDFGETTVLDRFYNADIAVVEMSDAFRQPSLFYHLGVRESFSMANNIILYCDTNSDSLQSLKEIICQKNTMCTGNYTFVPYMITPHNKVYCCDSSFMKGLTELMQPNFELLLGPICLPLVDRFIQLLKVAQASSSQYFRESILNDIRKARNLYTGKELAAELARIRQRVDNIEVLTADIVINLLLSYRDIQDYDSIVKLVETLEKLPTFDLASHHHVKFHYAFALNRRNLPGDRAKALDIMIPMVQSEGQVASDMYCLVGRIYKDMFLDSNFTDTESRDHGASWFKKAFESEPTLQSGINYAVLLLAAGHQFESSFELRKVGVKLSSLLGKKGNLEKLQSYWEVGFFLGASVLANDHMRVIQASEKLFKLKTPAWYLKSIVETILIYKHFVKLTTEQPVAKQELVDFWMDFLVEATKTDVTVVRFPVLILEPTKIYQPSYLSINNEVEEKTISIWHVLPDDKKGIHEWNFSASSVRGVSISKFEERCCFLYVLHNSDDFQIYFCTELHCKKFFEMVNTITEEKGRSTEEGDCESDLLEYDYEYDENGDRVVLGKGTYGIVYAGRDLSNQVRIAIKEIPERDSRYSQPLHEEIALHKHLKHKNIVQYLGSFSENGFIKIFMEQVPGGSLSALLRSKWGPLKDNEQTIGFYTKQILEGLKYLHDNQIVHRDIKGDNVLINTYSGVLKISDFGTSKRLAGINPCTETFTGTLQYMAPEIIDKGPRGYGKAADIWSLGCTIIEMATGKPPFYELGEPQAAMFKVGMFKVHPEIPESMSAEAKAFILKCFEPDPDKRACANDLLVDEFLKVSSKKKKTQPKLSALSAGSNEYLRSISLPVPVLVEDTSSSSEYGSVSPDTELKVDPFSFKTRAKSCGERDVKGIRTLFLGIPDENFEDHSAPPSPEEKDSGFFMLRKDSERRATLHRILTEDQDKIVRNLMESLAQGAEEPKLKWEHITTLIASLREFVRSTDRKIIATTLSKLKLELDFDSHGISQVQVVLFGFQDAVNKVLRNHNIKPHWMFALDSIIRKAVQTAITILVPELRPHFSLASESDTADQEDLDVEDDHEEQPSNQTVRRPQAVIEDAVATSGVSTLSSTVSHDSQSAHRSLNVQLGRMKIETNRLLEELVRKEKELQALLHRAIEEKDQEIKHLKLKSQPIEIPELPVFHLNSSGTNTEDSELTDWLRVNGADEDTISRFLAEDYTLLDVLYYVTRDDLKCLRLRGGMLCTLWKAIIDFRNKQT

[7] = kinase CDK3/CycE1, 1 μM compound
[8] = kinase MAP3K5, compound at 1 μM

Chain of panel of more than 300 wild-type and mutant kinases (313 kinase panel) (Homo sapiens, UniProt P07947) (P07947 whole entry, change not shown): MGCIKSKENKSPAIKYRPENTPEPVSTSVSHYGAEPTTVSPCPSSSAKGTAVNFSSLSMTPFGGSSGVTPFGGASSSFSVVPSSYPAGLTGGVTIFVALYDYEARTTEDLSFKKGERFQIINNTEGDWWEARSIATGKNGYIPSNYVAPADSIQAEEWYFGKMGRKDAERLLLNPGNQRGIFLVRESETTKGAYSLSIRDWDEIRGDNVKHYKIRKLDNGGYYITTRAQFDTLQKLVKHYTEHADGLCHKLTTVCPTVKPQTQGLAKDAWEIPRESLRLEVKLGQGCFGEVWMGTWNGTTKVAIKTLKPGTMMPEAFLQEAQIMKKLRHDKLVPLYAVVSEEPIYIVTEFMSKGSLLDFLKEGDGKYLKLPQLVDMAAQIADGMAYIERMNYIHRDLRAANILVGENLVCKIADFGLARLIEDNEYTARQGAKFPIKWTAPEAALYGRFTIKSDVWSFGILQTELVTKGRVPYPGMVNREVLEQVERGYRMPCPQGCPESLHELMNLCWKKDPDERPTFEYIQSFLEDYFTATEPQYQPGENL
Chain of panel of more than 300 wild-type and mutant kinases (313 kinase panel) (Homo sapiens, UniProt Q00526) (Q00526 whole entry, change not shown): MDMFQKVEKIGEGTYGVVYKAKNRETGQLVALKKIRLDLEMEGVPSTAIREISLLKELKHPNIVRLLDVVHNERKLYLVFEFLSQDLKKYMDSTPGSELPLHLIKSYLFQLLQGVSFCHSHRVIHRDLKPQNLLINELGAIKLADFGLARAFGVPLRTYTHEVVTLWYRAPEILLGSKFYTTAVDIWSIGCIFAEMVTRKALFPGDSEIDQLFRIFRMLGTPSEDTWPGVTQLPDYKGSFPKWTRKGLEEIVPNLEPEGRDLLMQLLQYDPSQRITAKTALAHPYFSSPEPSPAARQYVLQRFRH

Row | SMILES | %-inhibition, CDK3/CycE1 [1, 7] | %-inhibition of YES ([2]; kinase YES, compound at 1 μM) | %-inhibition of FMS ([3]; kinase FMS, compound at 1 μM) | %-inhibition of NuaK1 ([4]; kinase NuaK1, 1 μM) | %-inhibition, CHK2 ([5]; kinase CHK2, 1 μM compound) | %-inhibition, CDK3/CycE1 ([1]; 1 µM) | %-inhibition of MAP3K5 [6, 8] | %-inhibition, CHK2 ([5]; 1 µM) | %-inhibition of MAP3K5 ([6]; 1 µM) | %-inhibition of YES ([2]; 1 µM) | %-inhibition of NuaK1 ([4]; 1 µM) | %-inhibition of FMS ([3]; 1 µM)
1 | Cc1ccc(C(=O)Nc2ccc(CN3CCN(C)CC3)c(C(F)(F)F)c2)cc1C#Cc1cnc2cccnn12 [ponatinib] | 20% | 101% | 101% | 5% |  |  |  |  |  |  |  | 
2 | CC(C)(C)c1nc(-c2cccc(NS(=O)(=O)c3c(F)cccc3F)c2F)c(-c2ccnc(N)n2)s1 [dabrafenib] |  |  | 15% | 7% | 7% |  |  |  |  |  |  | 
3 | COc1cc(Nc2c(C#N)cnc3cc(OCCCN4CCN(C)CC4)c(OC)cc23)c(Cl)cc1Cl [bosutinib] |  | 97% | 93% | 84% |  | 1% |  |  |  |  |  | 
4 | Cc1nc(Nc2ncc(C(=O)Nc3c(C)cccc3Cl)s2)cc(N2CCN(CCO)CC2)n1 [dasatinib] | 2.27% |  |  |  |  |  | -1.69% |  |  |  |  | 
5 | CO[C@H]1C[C@@H]2CC[C@@H](C)[C@@](O)(O2)C(=O)C(=O)N2CCCC[C@H]2C(=O)O[C@H]([C@H](C)C[C@@H]2CC[C@@H](OC(=O)C(C)(CO)CO)[C@H](OC)C2)CC(=O)[C@H](C)/C=C(\C)[C@@H](O)[C@@H](OC)C(=O)[C@H](C)C[C@H](C)/C=C/C=C/C=C/1C [temsirolimus] | -6% | -7% | -1.41% | 3.3% | -3.45% |  | 2.79% |  |  |  |  | 
6 | C#Cc1cccc(Nc2ncnc3cc(OCCOC)c(OCCOC)cc23)c1 [erlotinib] |  |  |  |  |  | 7% |  | 10% | 5% | 51% | 12% | 
7 | CCCS(=O)(=O)Nc1ccc(F)c(C(=O)c2c[nH]c3ncc(-c4ccc(Cl)cc4)cc23)c1F [vemurafenib] | -4.34% | 74% | 6% | 4% | 6.32% |  | 13% |  |  |  |  | 
8 | N#CC[C@H](C1CCCC1)n1cc(-c2ncnc3[nH]ccc23)cn1 [ruxolitinib] | -9.52% |  |  | 55% | 3.64% |  | 6% |  |  | 24% |  | 68%
9 | CC(=O)Nc1cccc(-n2c(=O)n(C3CC3)c(=O)c3c(Nc4ccc(I)cc4F)n(C)c(=O)c(C)c32)c1 [trametinib] | 0.16% | -1.63% | -4% | -0.634% | -5% |  | 17% |  |  |  |  | 
10 | COc1cc2c(Nc3ccc(Br)cc3F)ncnc2cc1OCC1CCN(C)CC1 [vandetanib] | -13% | 100% |  | 16% | 57% |  | 8% |  |  |  |  | 
11 | CS(=O)(=O)CCNCc1ccc(-c2ccc3ncnc(Nc4ccc(OCc5cccc(F)c5)c(Cl)c4)c3c2)o1 [lapatinib] | 2.84% | 26% | -5.46% | 3% | 12% |  | 6% |  |  |  |  | 
12 | CO[C@H]1C[C@@H]2CC[C@@H](C)[C@@](O)(O2)C(=O)C(=O)N2CCCC[C@H]2C(=O)O[C@H]([C@H](C)C[C@@H]2CC[C@@H](OCCO)[C@H](OC)C2)CC(=O)[C@H](C)/C=C(\C)[C@@H](O)[C@@H](OC)C(=O)[C@H](C)C[C@H](C)/C=C/C=C/C=C/1C [everolimus] | -4.51% | 0% | -2.3% | 4.27% | -37% |  | 2.56% |  |  |  |  | 
13 | CCN(CC)CCNC(=O)c1c(C)[nH]c(/C=C2\C(=O)Nc3ccc(F)cc32)c1C [sunitinib] |  | 99% |  |  |  |  |  |  |  |  |  | 
14 | CNC(=O)c1cc(Oc2ccc(NC(=O)Nc3ccc(Cl)c(C(F)(F)F)c3)c(F)c2)ccn1 [regorafenib] | -1.17% | 62% | 92% | -1.75% | -2.11% |  | 5% |  |  |  |  | 
15 | O=S(=O)(c1cccc2cnccc12)N1CCCNCC1 [fasudil] | 24% | 1.18% | -3% | 44% | 4% |  | -15% |  |  |  |  | 
16 | C[C@@H](Oc1cc(-c2cnn(C3CCNCC3)c2)cnc1N)c1c(Cl)ccc(F)c1Cl [crizotinib] | -5.68% | 65% | 92% |  | 9% |  | 1.11% |  |  |  | 99% | 
17 | Cc1cn(-c2cc(NC(=O)c3ccc(C)c(Nc4nccc(-c5cccnc5)n4)c3)cc(C(F)(F)F)c2)cn1 [nilotinib] | -1.6% | 44% |  |  | -12% |  | -2.28% |  |  |  | -17% | 52%
18 | Cc1ccc(Nc2nccc(N(C)c3ccc4c(C)n(C)nc4c3)n2)cc1S(N)(=O)=O [pazopanib] | 0.931% | 68% |  | 73% | 5.7% |  | 18% |  |  |  |  | 
19 | COc1cc2nccc(Oc3ccc(NC(=O)C4(C(=O)Nc5ccc(F)cc5)CC4)cc3)c2cc1OC [cabozantinib] | -2.84% | 90% | 54% | 7% | 65% |  | 1.72% |  |  |  |  | 
